The values that follow come from PubChem BioAssay (NCI).

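Tested at 5 concentrations; 48 h exposure; 96-well plates; endpoints linearly interpolated, else capped at highest concentration. At the TGI there is no net growth.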

Holding throughout (experiment): NCI anticancer screen, dose series, 48 h
The subject of assay [1] is HOP-92 NSCLC.
The test system of assay [2] is CCRF-CEM leukemia.
The test system of assay [3] is HCT-116 colon.
For assay [4], the system named is HS 578T breast.
Assay [5] relates to OVCAR-3 ovarian.
Assay [6] concerns CAKI-1 renal.
The subject of assay [7] is K-562 leukemia.
Assay [8] has as its system NCI-H522 lung.
Assay [9] concerns T-47D breast.
For assay [10], the system named is KM12 colon.

Regarding `COc1ccc(N2C(=O)C3c4[nH]c5ccc(C)cc5c4C4CCC(C)CC4C3C2=O)cc1` (configuration not stated), the TGI was over 100 µM in [1]; over 100 µM in [2]; over 100 µM in [3]; 37.2 µM in assay [4]; over 100 µM in assay [5]; over 100 µM in assay [6]. The TGI in [7] and in assay [8] was over 100 µM throughout.

Turning to `N#CC(C#N)=Cc1ccc2c(c1)OC(Cl)O2` (configuration not stated), the TGI in assay [2] is over 100 µM; in [3], 38.6 µM; in assay [5], 52.8 µM; in assay [6], over 100 µM; in assay [9], over 100 µM; in [7] it was over 100 µM. Further, in assay [10], the TGI amounted to 39.9 µM.

On to `O=C(c1ccccc1)c1ccc(COc2ccc(C(c3c(O)c4ccccc4oc3=O)c3c(O)c4ccccc4oc3=O)cc2)cc1`, for which the TGI is 16.4 µM in [2]; over 100 µM in [3]; over 100 µM in [4]; 34.5 µM in assay [5]; 45 µM in [6]; 57.6 µM in assay [9]. Further, the TGI amounted to 53.3 µM in [7], 38.1 µM in [8] and 29.6 µM in assay [10].

On to `CC(=O)OCC(OC(C)=O)C(OC(C)=O)C(C=NN(C(C)=O)S(=O)(=O)c1ccc(/C=C2\NC(=O)NC2=O)cc1)OC(C)=O` (configuration not stated), for which the TGI in [2], in assay [3], in assay [4], in assay [5], in assay [6] and in assay [9] was over 100 µM each time. For the same compound, the TGI in [7] was over 100 µM.

As for `COc1cc(OC)c(/C=C2\N=C(C)N(Nc3nnc(NN4C(=O)/C(=C/c5c(OC)cc(OC)cc5OC)N=C4C)c4ccccc34)C2=O)c(OC)c1`, the TGI in assay [1], in assay [2], in assay [3], in assay [7], in assay [8] and in [10] was over 100 µM in each case.

`CCOC(=O)/C(C(=S)Nc1ccccc1)=C(/N)N1CCCC1`: the TGI is 53.2 µM in assay [1]; over 100 µM in assay [2]; over 100 µM in assay [3]; over 100 µM in [4]; over 100 µM in assay [5]; over 100 µM in [6]. Moreover, the TGI in assay [7], in assay [8] and in assay [10] was over 100 µM throughout.

In the case of `COc1ccc(NS(=O)CCCc2ccccc2)cc1` (configuration not stated), the TGI in assay [2] was over 100 µM; in assay [3], over 100 µM; in [4], over 100 µM; in assay [5] it was over 100 µM; in [9] it was 71.9 µM; in assay [7] it was over 100 µM. Further, the TGI in [8] and in assay [10] was over 100 µM in each case.

`CN(C)c1ccc(N=Nc2ccc3nc[nH]c3c2)cc1`: the TGI in [2] is over 100 µM; in assay [3], 38.8 µM; in assay [4], 74.2 µM; in [6], over 100 µM; in [9] it was over 100 µM; in assay [7] it was 75.2 µM. The TGI is 51.1 µM in assay [8] and 63.9 µM in [10].

For `Cn1c(/C=C(\O)c2ccc(Cl)cc2)nc2ccccc21`, the TGI is over 100 µM in assay [2]; over 100 µM in [3]; over 100 µM in assay [5]; 97 µM in assay [6]; over 100 µM in assay [7]; over 100 µM in [8]. The compound also showed a TGI in [10] of over 100 µM.

Take `CCO[C@]12C[C@H](OC)[C@@]3(O)CC(C1[C@H]3OCc1ccccc1)C13C4C2[C@H](OC)C1[C@](COC)(CN4CC)[C@H](O)C[C@@H]3OC` (some centres not stated): the TGI in assay [2], in assay [3] and in assay [7] was over 100 µM each time.

Consider `CCOC1(COP(=O)(OCc2ccccc2)OCc2ccccc2)COC(COP(=O)(OCc2ccccc2)OCc2ccccc2)(OCC)CO1` (configuration not stated), for which the TGI in [1], in assay [2], in assay [3], in [5], in [6] and in [7] was over 100 µM each time. For the same compound, the TGI in assay [8] and in assay [10] was over 100 µM in each case.

Consider `CC(=O)C1=CSC2[C@H](NC(=O)Cc3ccccc3)C(=O)N2C1C(=O)OC(c1ccccc1)c1ccccc1` (some centres not stated), for which the TGI in assay [1] was over 100 µM; in assay [2], 68.2 µM; in assay [3], over 100 µM; in assay [5], over 100 µM; in assay [6], over 100 µM; in [7] it was over 100 µM. Also, the TGI in [8] and in [10] was over 100 µM throughout.

For `COc1cc2cc(C(=O)N3CC(CCl)c4ccc(O)cc43)[nH]c2c(OC)c1OC` (configuration not stated), the TGI in assay [2] was over 100 µM; in assay [4], 0.0588 µM; in assay [5], 0.015 µM; in assay [6], 0.0201 µM; in assay [9], 0.547 µM; in assay [8], 0.00168 µM. For the same compound, in [10], the TGI came to 0.0273 µM.

On to `COc1cc2c(c(OC)c1OC)C(=O)[C@H](O)[C@H]2NC(N)=O`, for which the TGI in assay [2], in assay [3], in assay [4], in [5], in assay [6] and in assay [7] was over 100 µM in each case. For the same compound, the TGI in assay [8] and in assay [10] was over 100 µM throughout.

Regarding `O=c1cc(-c2cccc(Cl)c2)[nH]c2ncccc12`, the TGI in [1] is over 100 µM; in assay [2], over 100 µM; in assay [3] it was 1.17 µM; in assay [4], 13 µM; in [5], 0.957 µM; in assay [6], 40.4 µM. Besides, the TGI is 0.914 µM in assay [8] and over 100 µM in [10].

For `CC1CCCc2c(C#N)c(N)nc(-c3ccc(Cl)cc3)c21` (configuration not stated), the TGI in assay [2] was over 100 µM; in assay [3], over 100 µM; in assay [4] it was over 100 µM; in [5] it was 44.4 µM; in assay [6], over 100 µM; in assay [9], 74.5 µM. Also, the TGI in assay [7] and in assay [10] was over 100 µM throughout.

As to `CN(CCO)c1nc2c(c(=O)[nH]1)CCC2`, the TGI in assay [1], in [2], in [3], in assay [5], in assay [6] and in [7] was over 100 µM each time. Further, the TGI in [8] and in assay [10] was over 100 µM each time.
